This is an account of results in patent US20250320206A1, “STAT6 DEGRADERS” (Gilead Sciences, Inc., priority 2024, published 2025).

The target of one test is T1, STAT6 (Homo sapiens, UniProt P42226).
T1 construct: These cells express endogenous STAT6; host or cells: HeLa LgBiT clone 4.14
T1 sequence (P42226 1-847): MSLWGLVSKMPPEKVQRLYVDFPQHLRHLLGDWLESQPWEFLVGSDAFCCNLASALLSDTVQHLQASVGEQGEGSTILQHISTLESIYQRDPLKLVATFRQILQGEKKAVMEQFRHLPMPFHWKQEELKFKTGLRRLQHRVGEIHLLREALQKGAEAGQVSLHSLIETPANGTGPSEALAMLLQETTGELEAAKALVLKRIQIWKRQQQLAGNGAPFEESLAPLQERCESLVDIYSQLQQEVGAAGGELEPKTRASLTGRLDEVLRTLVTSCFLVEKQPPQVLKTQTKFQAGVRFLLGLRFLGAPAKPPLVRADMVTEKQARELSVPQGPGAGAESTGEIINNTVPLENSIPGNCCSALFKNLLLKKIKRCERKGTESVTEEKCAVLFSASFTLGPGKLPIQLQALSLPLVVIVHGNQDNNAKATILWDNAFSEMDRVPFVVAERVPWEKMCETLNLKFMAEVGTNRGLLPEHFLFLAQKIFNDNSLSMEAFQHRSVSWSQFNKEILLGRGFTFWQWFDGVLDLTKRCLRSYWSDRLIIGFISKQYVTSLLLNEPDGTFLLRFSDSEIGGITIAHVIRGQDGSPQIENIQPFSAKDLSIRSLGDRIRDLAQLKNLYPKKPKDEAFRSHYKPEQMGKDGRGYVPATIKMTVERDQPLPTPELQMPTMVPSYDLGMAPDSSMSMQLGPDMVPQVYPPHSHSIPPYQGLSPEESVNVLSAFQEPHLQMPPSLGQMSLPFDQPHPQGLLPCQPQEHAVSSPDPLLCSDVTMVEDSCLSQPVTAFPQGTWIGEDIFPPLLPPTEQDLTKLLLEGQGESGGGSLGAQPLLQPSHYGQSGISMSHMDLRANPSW
Description: Stat6 Degrader Assay (HiBiT based, HeLa LgBiT clone 4.14). In kind it is cell-based. To be noted: HeLa LgBiT clone 4.14 HiBiT-STAT6, 4-24 h incubation; values given for compounds with >80% Emax; geometric mean; read-out: STAT6 degradation DC50. The method, boiled down: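 HeLa LgBiT clone 4.14 cells with CRISPR HiBiT-tagged endogenous STAT6, 5000 cells/well, compound dosed then incubated 4-24 h at 37° C, 5% CO2. Nano-Glo substrate added, 0.5 h, luminescence read as non-degraded STAT6. Terfenadine 50 μM (cell kill) defines 100% degradation.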
A general note: With HiBiT, luminescence reflects the tagged protein that the partner subunit can reach.

The subject of test [1] is Eotaxin-3 release in human whole blood stimulated with IL-4. Description: Human Whole Blood Eotaxin-3 Assay (IL-4 stimulated eotaxin-3 release). In kind it is cell-based. To be noted: IL-4 stimulation, 48 h, values given for compounds with >80% Emax, geometric mean. The method, boiled down: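 Lithium-heparin human whole blood preincubated 2 h at 37° C with 4-fold serially diluted compounds (0.5% DMSO), then stimulated with recombinant human IL-4 ([…]) for 48 h. Eotaxin-3 (CCL26) in supernatant quantified by MSD immunoassay.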

Turning to `CNc1ccn(-c2ccnc3c2cc([C@H](C)N2CC=C(c4c(C)cc(C(=O)N5CCC(CN6CCN(Cc7cc8c(cc7F)N(C7CCC(=O)NC7=O)C(=O)C8(C)C)C[C@@H]6C)CC5)cc4F)CC2)n3C)c(=O)c1` (stereo partly drawn) [Example 3u181, 3-(6-fluoro-5-(((S)-4-((1-(3-fluoro-5-methyl-4-(1-((S)-1-(1-methyl-4-(4-(methyl-amino)-2-oxopyridin-1 (2H)-yl)-1H-pyrrolo[2,3-b]pyridin-2-yl)ethyl)-1,2,3,6-tetrahydropyridin-4-yl)-benzoyl)piperidin-4-yl)methyl)-3-methylpiperazin-1-yl)methyl)-3,3-dimethyl-2-oxoindolin-1-yl)-piperidine-2,6-dione], on STAT6, the DC50 (usually the concentration at which degradation of the target reaches its halfway point) is 3.4 nM. Further, in test [1], the response was half-maximal at 16.3 nM (EC50).

With `C[C@H]1CN(Cc2ccc3c(c2)C(C)(C)C(=O)N3C2CCC(=O)NC2=O)CCN1CC1CCN(C(=O)c2ccc(C3CCN([C@@H](C)c4cc5c(-n6ccc7c(c6=O)CCN7)ccnc5n4C)CC3)cc2)CC1` (stereo partly drawn) [Example 3u184, 3-(3,3-dimethyl-5-(((S)-3-methyl-4-((1-(4-(1-((S)-1-(1-methyl-4-(4-oxo-1,2,3,4-tetrahydro-5H-pyrrolo[3,2-c]pyridin-5-yl)-1H-pyrrolo[2,3-b]pyridin-2-yl)ethyl)piperidin-4-yl)benzoyl)-piperidin-4-yl)methyl)piperazin-1-yl)methyl)-2-oxoindolin-1-yl)piperidine-2,6-dione], the half-maximal degradation concentration (DC50) on STAT6 worked out at 2.4 nM. The response in test [1] was half-maximal at 7 nM (EC50).

`CNc1ccn(-c2ccnc3c2cc([C@H](C)N2CCC(c4ccc(C(=O)N5CCC(CN6CCN(Cc7ccc8c(c7)C(C)(C)C(=O)N8C7CCC(=O)NC7=O)C[C@@H]6C)CC5)cc4)CC2)n3C)c(=O)c1` (stereo partly drawn) [Example 3u187, 3-(3,3-dimethyl-5-(((S)-3-methyl-4-((1-(4-(1-((S)-1-(1-methyl-4-(4-(methylamino)-2-oxopyridin-1 (2H)-yl)-1H-pyrrolo[2,3-b]pyridin-2-yl)ethyl)piperidin-4-yl)benzoyl)piperidin-4-yl)-methyl)piperazin-1-yl)methyl)-2-oxoindolin-1-yl)piperidine-2,6-dione]: the DC50 on STAT6 was 3.1 nM. The EC50 (usually the midpoint of the concentration-response curve) in test [1] stood at 4.2 nM.

With `CNc1ccn(-c2ccnc3c2cc([C@H](C)N2CC=C(c4c(C)cc(C(=O)N5CCC(CN6CCN(Cc7cc8c(cc7F)N(C7CCC(=O)NC7=O)C(=O)C87CC7)C[C@@H]6C)CC5)cc4F)CC2)n3C)c(=O)c1` (stereo partly drawn) [Example 3u193, 3-(6′-fluoro-5′-(((S)-4-((1-(3-fluoro-5-methyl-4-(1-((S)-1-(1-methyl-4-(4-(methyl-amino)-2-oxopyridin-1 (2H)-yl)-1H-pyrrolo[2,3-b]pyridin-2-yl)ethyl)-1,2,3,6-tetrahydropyridin-4-yl)benzoyl)piperidin-4-yl)methyl)-3-methylpiperazin-1-yl)methyl)-2′-oxospiro[cyclopropane-1,3′-indolin]-1′-yl)piperidine-2,6-dione], on STAT6, the DC50 worked out at 1.9 nM. In test [1], this molecule had an EC50 of 2.4 nM.

In the case of `C[C@H]1CN(Cc2ccc3c(c2)n(C2CC2)c(=O)n3C2CCC(=O)NC2=O)CCN1CC1CCN(C(=O)c2cc(F)c(C3CCN([C@@H](C)c4cc5c(-n6ccc7c(c6=O)CCN7)ccnc5n4C)CC3)c(F)c2)CC1` (stereo partly drawn) [Example 3u196, 3-(3-cyclopropyl-5-(((S)-4-((1-(3,5-difluoro-4-(1-((S)-1-(1-methyl-4-(4-oxo-1,2,3,4-tetrahydro-5H-pyrrolo[3,2-c]pyridin-5-yl)-1H-pyrrolo[2,3-b]pyridin-2-yl)ethyl)piperidin-4-yl)benzoyl)-piperidin-4-yl)methyl)-3-methylpiperazin-1-yl)methyl)-2-oxo-2,3-dihydro-1H-benzo[d]imidazol-1-yl)-piperidine-2,6-dione], on STAT6, the 50% degradation concentration (DC50) amounted to 0.3 nM. In addition, the EC50 in test [1] was found to be 0.5 nM.

Consider `CNc1ccn(-c2ccnc3c2cc([C@H](C)N2CCC(c4c(C)cc(C(=O)N5CCC(CN6CCN(Cc7ccc8c(c7)n(C7CC7)c(=O)n8C7CCC(=O)NC7=O)C[C@@H]6C)CC5)cc4F)CC2)n3C)c(=O)c1` (stereo partly drawn) [Example 3u197, 3-(3-cyclopropyl-5-(((S)-4-((1-(3-fluoro-5-methyl-4-(1-((S)-1-(1-methyl-4-(4-(methyl-amino)-2-oxopyridin-1 (2H)-yl)-1H-pyrrolo[2,3-b]pyridin-2-yl)ethyl)piperidin-4-yl)benzoyl)piperidin-4-yl)methyl)-3-methylpiperazin-1-yl)methyl)-2-oxo-2,3-dihydro-1H-benzo[d]imidazol-1-yl)piperidine-2,6-dione], for which, at STAT6, the DC50 worked out at 1.2 nM. For the same molecule, the EC50 in test [1] worked out at 2.7 nM.

`C[C@H]1CN(Cc2cc3c(cc2F)N(C2CCC(=O)NC2=O)C(=O)C3(C)C)CCN1CC1CCN(C(=O)c2cc(F)c(C3=CCN([C@@H](C)c4cc5c(-n6ccc7c(c6=O)CCN7)ccnc5n4C)CC3)c(F)c2)CC1` (stereo partly drawn) [Example 3u200, 3-(5-(((S)-4-((1-(3,5-difluoro-4-(1-((S)-1-(1-methyl-4-(4-oxo-1,2,3,4-tetrahydro-5H-pyrrolo[3,2-c]pyridin-5-yl)-1H-pyrrolo[2,3-b]pyridin-2-yl)ethyl)-1,2,3,6-tetrahydropyridin-4-yl)-benzoyl)piperidin-4-yl)methyl)-3-methylpiperazin-1-yl)methyl)-6-fluoro-3,3-dimethyl-2-oxoindolin-1-yl)piperidine-2,6-dione]: the DC50 on STAT6 came out at 2 nM. In test [1], this molecule returned an EC50 of 9.9 nM.

As for `CNc1ccn(-c2ccnc3c2cc([C@H](C)N2CC=C(c4c(F)cc(C(=O)N5CCC(CN6CCN(Cc7ccc8c(c7)C(C)(C)C(=O)N8C7CCC(=O)NC7=O)C[C@@H]6C)CC5)cc4F)CC2)n3C)c(=O)c1` (stereo partly drawn) [Example 3u201, 3-(5-(((S)-4-((1-(3,5-difluoro-4-(1-((S)-1-(1-methyl-4-(4-(methylamino)-2-oxopyridin-1 (2H)-yl)-1H-pyrrolo[2,3-b]pyridin-2-yl)ethyl)-1,2,3,6-tetrahydropyridin-4-yl)benzoyl)piperidin-4-yl)-methyl)-3-methylpiperazin-1-yl)methyl)-3,3-dimethyl-2-oxoindolin-1-yl)piperidine-2,6-dione], at STAT6, the DC50 was 1.3 nM. The molecule also displayed an EC50 in test [1] of 3.8 nM.

With `CNc1ccn(-c2ccnc3c2cc(CN2CCC(c4c(F)cc(C(=O)N5CCC(CN6CCN(Cc7ccc8c(c7)C(C)(C)C(=O)N8C7CCC(=O)NC7=O)C[C@@H]6C)CC5)cc4F)CC2)n3C)c(=O)c1` (stereo partly drawn) [Example 3u204, 3-(5-(((S)-4-((1-(3,5-difluoro-4-(1-((1-methyl-4-(4-(methylamino)-2-oxopyridin-1 (2H)-yl)-1H-pyrrolo[2,3-b]pyridin-2-yl)methyl)piperidin-4-yl)benzoyl)piperidin-4-yl)methyl)-3-methyl-piperazin-1-yl)methyl)-3,3-dimethyl-2-oxoindolin-1-yl)piperidine-2,6-dione], the DC50 at STAT6 stood at 2.5 nM. The EC50 in test [1] amounted to 4.6 nM.

With `CNc1ccn(-c2ccnc3c2cc([C@H](C)N2CC=C(c4c(C)cc(C(=O)N5CCC(CN6CCN(Cc7cc8c(cc7F)n(C7CCC(=O)NC7=O)c(=O)n8C)C[C@@H]6C)CC5)cc4F)CC2)n3C)c(=O)c1` (stereo partly drawn) [Example 3u207, 3-(6-fluoro-5-(((S)-4-((1-(3-fluoro-5-methyl-4-(1-((S)-1-(1-methyl-4-(4-(methyl-amino)-2-oxopyridin-1 (2H)-yl)-1H-pyrrolo[2,3-b]pyridin-2-yl)ethyl)-1,2,3,6-tetrahydropyridin-4-yl)-benzoyl)piperidin-4-yl)methyl)-3-methylpiperazin-1-yl)methyl)-3-methyl-2-oxo-2,3-dihydro-1H-benzo[d]imidazol-1-yl)piperidine-2,6-dione], the DC50 on STAT6 came out at 0.3 nM. This molecule came in with an EC50 in test [1] of 0.2 nM.

Take `CNc1ccn(-c2ccnc3c2cc([C@H](C)N2CC=C(c4c(F)cc(C(=O)N5CCC(CN6CCN(Cc7ccc8c(c7)n(C7CC7)c(=O)n8C7CCC(=O)NC7=O)C[C@@H]6C)CC5)cc4F)CC2)n3C)c(=O)c1` (stereo partly drawn) [Example 3u210, 3-(3-cyclopropyl-5-(((S)-4-((1-(3,5-difluoro-4-(1-((S)-1-(1-methyl-4-(4-(methylamino)-2-oxopyridin-1 (2H)-yl)-1H-pyrrolo[2,3-b]pyridin-2-yl)ethyl)-1,2,3,6-tetrahydropyridin-4-yl)benzoyl)-piperidin-4-yl)methyl)-3-methylpiperazin-1-yl)methyl)-2-oxo-2,3-dihydro-1H-benzo[d]imidazol-1-yl)piperidine-2,6-dione]: the DC50 on STAT6 came out at 0.5 nM. In test [1], this molecule came in with an EC50 of 1.1 nM.
